Assay results: US8445526B2, “Compositions and methods for treatment of glaucoma” (Glaucoma & Nasal Therapies LLC, priority 2011, dated 2013)
≈ marks a conversion by molar mass, not a printed value. Where two headings read alike, the source gives them in different places.

How the values were obtained:
[1] = test system: α-2 over α-1 adrenergic receptors; conditions: binding affinity for α-2 over α-1 receptors; cited from earlier work
normotensive rabbits = conditions: cited from earlier work; for contralateral (nontreated eye) IOP reduction compared to the treated eye / time of peak effect: normotensive rabbits; for time of peak effect: dexmedetomidine 0.05%, brimonidine tartrate 0.10%
one eye of an individual = experiment: Example 3: cosmetic appearance (redness, whiteness) of the treated eye; format: in vivo, human; conditions: for Eye White Shade: baseline 1; for Redness: baseline 1.5
normotensive eyes = conditions: under specific and very limited formulation conditions
[2] = test system: ocular hypertensive and normotensive eyes of patients; conditions: cited from earlier work; for equivalent reduction in normotensive human eyes: prior art formulations
[3] = test system: normotensive (<21 mm Hg) human subject; conditions: after instillation
Procedure: Various formulations of α-2 agonists were unilaterally administered to a normotensive (<21 mm Hg) human subject. The subject first underwent baseline IOP testing using standard applanation tonometry via slit lamp. After fluorescein instillation, the drug was instilled as a morning dose at between about 7:00 and 9:00 AM. […] Follow up IOP checks were designed to be about 4 hours after initial instillation, where instillation consisted of 1-2 drops.

[4] = conventional brimonidine formulations

In the case of `Nc1cc(Cl)c(N=C2NCCN2)c(Cl)c1` [Apraclondine], the “α2:α1” value [1] is given as 150.

In the case of `Cc1cc(C(C)(C)C)c(O)c(C)c1CC1=NCCN1` [Oxymetazoline], the “α2:α1” value [1] is listed as 50.

In the case of `Cc1cccc(C)c1N=C1NCCCS1` [Xylazine], the “α2:α1” value [1] is given as 160.

For `Clc1cccc(Cl)c1N=C1NCCN1` [Clonidine], the “α2:α1” value [1] is given as 200.

For `CC(Oc1c(Cl)cccc1Cl)C1=NCCN1` (stereo not shown) [Lofexidine], the “α2:α1” value [1] is given as less than 300.

In the case of brimonidine tartrate, the “peak IOP reduction” value (normotensive rabbits; 0.10% solution in normotensive rabbits) is given as “about 6.2 mm Hg”.

With `Cc1cccc([C@H](C)c2cnc[nH]2)c1C` [Dexmedetomidine] the “start of decrease in hyperemia and increase in whiteness” value (one eye of an individual; after the application) was “about 2 minutes”, the “time to maximum whiteness” value (one eye of an individual; after the application) was “about 10 minutes” and the “Eye White Shade” value (one eye of an individual; dexmedetomidine 0.010%, 4 (whitest)-1 off-white-gray/yellow) was 1. The Redness (one eye of an individual; dexmedetomidine 0.010%, scale 0 (none)-4 (reddest + chemosis)) was 1.25, the Redness (one eye of an individual; dexmedetomidine 0.022%, scale 0-4) was 1.25 and the “Eye White Shade” value (one eye of an individual; dexmedetomidine 0.022%, scale 4-1) was 1.25. The Redness (one eye of an individual; dexmedetomidine 0.050%, scale 0-4) was 1.0, the “Eye White Shade” value (one eye of an individual; dexmedetomidine 0.050%, scale 4-1) was 1.5 and the Redness (one eye of an individual; dexmedetomidine 0.10%, scale 0-4) was 0.75. For the same compound, the “Eye White Shade” value (one eye of an individual; dexmedetomidine 0.10%, scale 4-1) was 1.75, the Redness (one eye of an individual; dexmedetomidine […], scale 0-4) was 1.0 and the “Eye White Shade” value (one eye of an individual; dexmedetomidine […], scale 4-1) was 1.5. For the same compound, the “total duration of the effect (reduced hyperemia, increase in whiteness)” value (one eye of an individual; in vivo) was 3 to 5 h, the “more effective than brimonidine by (IOP reduction vs. time)” value (normotensive eyes) was “about 200%” and the “equivalent reduction in normotensive human eyes” value [2] was “about 20%”. For the same compound, the “pressure reduction in the nontreated (contralateral) eye relative to the treated eye” value (normotensive rabbits; 0.02% in normotensive rabbits, U.S. Pat. No. 5,304,569) was 100%, the pressure reduction (normotensive rabbits; 0.05% in normotensive rabbits, Vartiainen et al) was 4.75 mm Hg and the “contralateral (nontreated eye) IOP reduction compared to the treated eye” value (normotensive rabbits) was “about 100%”. The “time of peak effect” value (normotensive rabbits) was “about 2 hours”, the “α2:α1” value [1] was 1620 and the max soluble concentration (pH 6) was 0.195%. For the same compound, the “solubility” value (pH 6) was 1953 µg/mL (≈ 9750 µM), the max soluble concentration (pH 6.4) was 0.060% and the max soluble concentration (pH 7) was 0.023%. For the same compound, the “solubility” value (pH 7) was 224 µg/mL (≈ 1120 µM), the max soluble concentration (pH 7.4) was 0.015% and the max soluble concentration (pH 8) was 0.013%. The “solubility” value (pH 8) was 134 µg/mL (≈ 669 µM).

For `Brc1c(NC2=NCCN2)ccc2nccnc12` [Brimonidine], the “IOP reduction peaking at (time)” value [3] is listed as 2 h, the “substantial local side effects” value ([2]; conjunctival hyperemia, blepharitis, allergy, edema, follicles, foreign body sensation, burning, blurring) is listed as 10-25 % of users and the “time of peak IOP reduction effect after instillation” value ([2]; conventional brimonidine formulations, normotensive eyes) is listed as 2 to 3 h. For the same compound, the “duration of IOP reduction effect of a single dose” value [2, 4] was no more than 12 h, the “peak IOP reduction effect in normotensive eyes” value [2, 4] was 15-18% and the “peak IOP reduction in normotensive eyes (less than 21 mm Hg)” value ([2]; human, in vivo) was 6-18%. For the same compound, the “peak IOP reduction in ocular hypertensive eyes” value ([2]; human, in vivo) was 20-25%, the “peak effect within (time of instillation)” value ([2]; human, in vivo) was 2 to 3 h and the “topical lid and conjunctival allergy, dryness, and redness” value ([2]; human, in vivo) was “over 10 % of patients”. For the same compound, the “users complaining of dryness” value ([2]; human, in vivo) was “more than 10%”, the rebound redness ([2]; long term use) was 20-25% and the “equivalent reduction in normotensive human eyes” value [2] was “about 20%”. For the same compound, the duration of effect ([2]; typically) was “less than 12 hours”, the “contralateral (nontreated eye) IOP reduction compared to the treated eye” value (normotensive rabbits) was “about 10%” and the “time of peak effect” value (normotensive rabbits) was “about 3 hours”.
